Results published in US20040171073A1, “Compounds for modulation of cholesterol transport” (Massachusetts Institute of Technology, priority 2002, published 2004).

Columns and labels:
murine SR-BI [1] = target: T1, murine SR-BI (Mus musculus, UniProt Q61009); assay: Efflux of [3H]cholesterol from ldlA[mSR-BI] cells to HDL; format: cell-based; conditions: for EC50: inhibition of efflux to HDL, mean ± SD, n=3
T1 construct: expressed in transfected cells; host or cells: ldlA-7 (LDL receptor deficient Chinese hamster ovary cells)
T1 sequence (Q61009 1-509): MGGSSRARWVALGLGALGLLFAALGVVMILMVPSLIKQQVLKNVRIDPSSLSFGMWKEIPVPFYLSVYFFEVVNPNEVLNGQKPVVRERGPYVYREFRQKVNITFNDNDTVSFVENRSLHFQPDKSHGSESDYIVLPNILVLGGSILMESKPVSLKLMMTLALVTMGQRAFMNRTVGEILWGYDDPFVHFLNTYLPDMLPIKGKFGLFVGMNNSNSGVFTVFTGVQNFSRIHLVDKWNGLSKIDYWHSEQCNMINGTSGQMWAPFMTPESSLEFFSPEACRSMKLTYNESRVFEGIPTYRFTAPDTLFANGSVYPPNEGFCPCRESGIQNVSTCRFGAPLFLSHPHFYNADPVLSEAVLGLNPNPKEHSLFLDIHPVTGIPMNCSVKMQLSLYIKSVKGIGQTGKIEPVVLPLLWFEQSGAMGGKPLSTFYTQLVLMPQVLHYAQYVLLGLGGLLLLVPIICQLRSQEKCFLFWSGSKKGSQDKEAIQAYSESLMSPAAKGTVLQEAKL
Experimental: (§1) Cells were pre-incubated with BLTs for 1 hr (or 2.5 hrs for transferrin, EGF and cholera toxin uptake experiments) and all the experiments were performed at 37° C. Detailed characterization of the BLTs and their effects was performed with compounds whose identities and purities were confirmed by LC-MS.
(§2) Assays for the uptake of lipids from DiI-HDL and [^3]CE-HDL, efflux of [^3H]cholesterol from labeled cells, and ^125I-HDL binding were performed as described by Acton et al. Science (1996) January 26;271(5248):518-20; Gu, et al. J Biol. Chem. (2000) September 29;275(39):29993-30001; and Ji, et al., J. Biol. Chem. (1997) 272, 20982-5. In some experiments, values were normalized so that the 100% of control represents activity in the absence of compounds and 0% represents activity determined in the presence of a 40-fold excess of unlabeled HDL or, for Y1-BS1 cells, in the presence of a 1:500 dilution of the KKB-1 blocking antibody (Gu, et al., 2000, generous gift from Karen Kozarsky). The amounts of cell-associated [^3H]cholesteryl ether are expressed as the equivalent amount of [^3H]CE-HDL protein (ng) to permit direct comparison of the relative amounts of ^125I-HDL binding and [^3H]CE uptake.
In addition to mediating selective lipid uptake from HDL, SR-BI can facilitate the efflux of unesterified cholesterol from cells to HDL particles (Jian, et al. (1998) J Biol Chem 273, 5599-606. Ji, et al. (1997) J. Biol. Chem. 272, 20982-5). To determine if the BLTs could inhibit this SR-BI-mediated lipid transport activity, cells were labeled with [^3H]cholesterol and its efflux to unlabeled HDL measured in the presence or absence of the BLTs. (FIG. 2C, table II). Cells were incubated for 3 hrs in the absence (top panels) or presence (bottom panels) of 50 micromolar BLT-1 (MIT 9952-53) and epifluorescence light microscopy was used to monitor the following cellular activities: clathrin-dependent endocytosis of fluorescently labeled transferrin (A,B; HeLa cells) and EGF (C,D; HeLa cells); clathrin-independent endocytosis of fluorescently labeled cholera toxin (E, F; BSC-1 cells), and transport of the temperature sensitive fluorescent membrane protein VSVG^ts045-EGFP from the ER to the cell surface (G,H; BSC-1 cells). In addition, the intracellular distributions of the actin cytoskeleton (visualized with rhodamine labeled phalloidin, I,J; ldlA-[mSRBI] cells) and the tubulin network (visualized with fluorescently labeled antibodies specific to y-tubulin, K,L; BSC-1 cells) were determined. BLT-1 (MIT 9952-53) and the other BLTs (not shown) had no effects on any of these cellular properties or activities.

murine SR-BI [2] = target: T1, murine SR-BI; assay: 125I-HDL binding to ldlA[mSR-BI] cells; conditions: for (B) Binding Parameters Bmax: 125I-HDL binding sites in presence of BLT at its ICCE95, no BLT control 100.0 ± 18.4; for Effect on HDL binding to SR-BI / EC50: ldlA[mSR-BI] cells; for EC50: enhancement of HDL binding, 10 μg protein/ml HDL, mean ± SD, n=3, read-out: (A) EC50 ^1nI-HDL binding
Experimental: as §1, §2
It was initially expected that the BLTs would function by inhibiting HDL binding to SR-BI. However, when cells were incubated with a sub-saturating concentration of either [^3H]CE-HDL or ^125I-labeled HDL (^125I-HDL) (10 μg protein/ml) and increasing amounts of compound (FIG. 5), the decreases in [^3H]CE uptake (solid lines, no symbols, data from FIG. 2B) and [3H]cholesterol efflux (dashed lines, data from FIG. 2C) were accompanied by corresponding increases in ^125I-HDL binding (solid lines, square symbols). The concentration dependence of ^125I-HDL binding was determined in the presence or absence of BLTs at their ICCE95 concentrations (FIG. 6 and Table II).

SR-BI = target: T2, SR-BI (Mus musculus, UniProt Q61009); assay: Uptake of [3H]CE from [3H]CE-HDL by Y1-BS1 adrenocortical cells; format: cell-based, murine; conditions: inhibition, n=2, read-out: (A) EC50 [^3H]CEt HDL uptake (Y1-BS1 cells)
T2 construct: endogenous in cells; host or cells: Y1-BS1 murine adrenocortical cells (ACTH induced)
T2 sequence (Q61009 1-509): T1 sequence (Q61009 1-509)
Description: Biol. Chem. 273, 26338-48; Gu, et al. (2000) J. Biol. Chem. 275, 29993-30001; Acton, et al. (1994) J. Biol. Chem. 269, 21003-9; Pitas, et al. (1981) Arteriosclerosis 1, 177-85). LDL receptor deficient Chinese hamster ovary cells that express low levels of endogenous SR-BI, ldlA-7 (Kingsley, et al. (1984) Proc. Nat. Acad. Sci. USA 81, 5454-8), ldlA-7 cells stably transfected to express high levels of murine SR-BI (ldlA[mSR-BI])(Acton, et al., 1996), Y1-BS1 murine adrenocortical cells that express high levels of SR-BI after induction with ACTH (Rigotti, et al. (1996) J. Biol. Chem. 271, 33545-9), monkey kidney BS-C1 cells (Kapoor, et al. (2000) Journal of Cell Biology 150, 975-88) and HeLa cells (Temel, et al. (2002) J Biol Chem 8, 8) were maintained as previously described.
as §1, §2

murine SR-BI [3] = target: T1, murine SR-BI; assay: Uptake of [3H]cholesteryl ether from [3H]CE-HDL by ldlA[mSR-BI] cells; format: cell-based; conditions: for EC50: inhibition, mean ± SD, n=6 (n=5 where footnoted), read-out: (A) EC50 [^3H]CEt HDL uptake
Experimental: as §1, §2

murine SR-BI [4] = target: T1, murine SR-BI; assay: Uptake of DiI from DiI-HDL by ldlA[mSR-BI] cells (high throughput screen and concentration dependence); format: cell-based; conditions: for EC50: inhibition, mean ± SD, n=3
murine SR-BI [5] = target: T1, murine SR-BI; assay: Rate of 125I-HDL dissociation from cells; conditions: dissociation of 125I-HDL from ldlA[mSR-BI] cells in presence of BLT; no BLT control 0.11; n=2; read-out: (B) Binding Parameters Koff (converted)
Experimental: The rates of HDL dissociation from cells were determined by incubation of the cells with ^125I-HDL (10 μg protein/ml, 2 hrs, 37° C.) with and without BLTs. The medium was then either replaced with the same medium in which the ^125I-HDL was substituted by a 40-fold excess of unlabeled HDL or a 40-fold excess of unlabeled HDL was added to the labeled incubation medium. The amounts of cell-associated ^125I-HDL were then determined as a function of time. The two methods gave similar results.

[6] = DiI uptake from DiI-HDL, compounds at nominal 10 micromolar, ldlA[mSR-BI] cells

SMILES	EC50 (murine SR-BI [1])	(B) Binding Parameters Bmax (murine SR-BI [2])	Effect on HDL binding to SR-BI (murine SR-BI [2])	EC50 (murine SR-BI [2])	EC50 (SR-BI)	ICCE95 concentration (inhibits [3H]CE uptake by 95%) (murine SR-BI [3])	EC50 (murine SR-BI [3])	ENDOHDL Test 1 (murine SR-BI [4])	ENDOHDL Test 2 (murine SR-BI [4])	EC50 (murine SR-BI [4]; ldlA[mSR-BI] cells)	koff (murine SR-BI [5])	other results
CCCCOCCC1CCC/C1=N\NC(N)=S (stereo not drawn) [MIT 9952-61]	0.47 ± 0.23 µM	93.0 ± 20.5%	enhanced	0.25 ± 0.13 µM	0.41 µM	1 µM	0.24 ± 0.1 µM	0.7	0.57	0.35 ± 0.18 µM	0.00103 s⁻¹	Inhibition of SR-BI-mediated lipid transport / DiI uptake, concentration range in words (murine SR-BI [4]; ldlA[mSR-BI] cells): inhibited in the nanomolar range
COc1ccccc1NC(=O)Nc1ccc2ccccc2c1 [MIT 9952-29]	54.9 ± 35.2 µM	79.9 ± 15.9%	enhanced	24.9 ± 14.8 µM	4.4 µM	50 µM	3.9 µM	–	–	2 ± 1 µM	0.00137 s⁻¹	ICFC50 for efflux compared with that for uptake (murine SR-BI [1]): higher
c1ccc(-c2noc(-c3ccccc3)c3cccc2-3)cc1 [MIT 9952-19]	17.2 ± 4 µM	85.8 ± 15.8%	enhanced	46.5 ± 49.3 µM	1.7 µM	50 µM	2.3 ± 1.5 µM	–	–	0.51 ± 0.15 µM	0.00133 s⁻¹	ICFC50 for efflux compared with that for uptake (murine SR-BI [1]): higher
CCN(CC)CC(=O)Nc1ccc2c(c1)N(C(=O)c1ccccc1)c1ccccc1CC2.Cl [MIT 9952-178]	–	–	–	–	–	–	–	0.4	0.38	–	–	–
O=C(CC1=CCCCC1)Nc1cc([N+](=O)[O-])ccc1O [MIT 9952-167]	–	–	–	–	–	–	–	1.32	1.18	–	–	–
[O-][n+]1onc2c3cc(-c4ccccc4)[nH]c3ccc21 [MIT 9952-59]	–	–	–	–	–	–	–	0.35	0.44	–	–	–
CCCCC1(OC(=O)Nc2ccc(Cl)cc2)CCCCC1 [MIT 9952-196]	–	–	–	–	–	–	–	0.63	0.6	–	–	–
CCOCc1c(C)cc(C)c(/C=N/Nc2ccc([N+](=O)[O-])cc2)c1C [MIT 9952-174]	–	–	–	–	–	–	–	0.6	0.62	–	–	–
C/C(=N\NC(=O)c1ccccc1I)c1ccc(N)cc1 [MIT 9952-6]	75.3 ± 40.1 µM	92.1 ± 36.8%	enhanced	18 ± 3.7 µM	8 µM	50 µM	13.8 µM	0.52	0.54	7.1 ± 3.7 µM	0.00132 s⁻¹	ICFC50 for efflux compared with that for uptake (murine SR-BI [1]): higher
CCN1/C(=C\C(=O)c2ccc(C)cc2)Sc2ccccc21 [MIT 9952-295]	–	–	–	–	–	–	–	–	–	–	–	ENDOHDL Test 1 (murine SR-BI [4]; [6]): 0.64; ENDOHDL Test 2 (murine SR-BI [4]; [6]): 0.58
Nc1c(C(=O)c2ccc(Br)cc2)sc2nc(-c3ccccc3)c3c(c12)CCCC3 [MIT 9952-221]	–	–	–	–	–	–	–	0.62	0.59	–	–	–
NC(/N=N/c1ccccc1)=N\Nc1ccccc1 [MIT 9952-122]	–	–	–	–	–	–	–	0.55	0.82	–	–	–
